# According to US4377687A, “Analogs of 1-(2-chloroethyl)-1-nitroso-3-(cycloheyl)-urea substituted by heterocyclic rings or alkyl radicals” (Stiftung Deutsches Krebsforschungszentrum, priority 1978, dated 1983):
# Read-outs that look alike come from different tables or passages of the source.
# What was measured:
# [1] = Stability of the substance; format: physicochemical
# [2] = tested on: Yoshida sarcoma; format: in vivo, rat (male Sprague-Dawley rats); details: i.p.
# [3] = Water solubility
# [4] = tested on: Yoshida sarcoma; format: in vivo, rat (male Sprague-Dawley rats); details: for M = median survival time: i.p. day 8; for effect on survival time / life expectancy (in words): experiments 1-4, MeCCNU 45, morpholino-CNU 28 (exp. 3 and 5), dimethylmorpholine-CNU 45, piperidino-CNU 15, picolyl-3-CNU 25, picolyl-3-CNU.HCl 25 mg/kg
# Method: The chemotherapeutic activity of nitrosoureas was compared in antitumor tests using Yoshida sarcoma ascited cells implanted into the wall of the descending colon in Sprague-Dawley rats.
# (§1) Male Sprague-Dawley rats were used in the experiments. Yoshida sarcome in ascites form was maintained in the same strain of rats by serial intraperitoneal injection of 0,5 ml of ascites fluid.
# (§2) 3×10^6 cells were injected into the colon wall in a manner known per se. The chemotherapeutic treatment was carried out on the eighth day after implantation of the tumor cells.
# (§3) Water-insoluble compounds were dissolved in Cremophor EL/ethanol/physiological saline (20:20:60: vol.%). Water-soluble substances were dissolved in physiological saline. Cremophor EL is a surfactant on the basis of polyethoxylated castor oil. All test compounds were administered introperitoneally. The nitrosoureas were applied at approximately equitoxic doses corresponding to about 80% of the acute LD50 values observed in healthy rats of the same strain over a 28-day observation period.
# (§4) Each experiment involved an untreated control group and a varying number of treated groups. Individual survival times were counted as days after tumor inoculation. At the time of death a record of whether an animal was tumor-free or not was made. All animals alive 120 days after tumor inoculation were killed. Animals that according to macroscopic examination had no tumor at the end of the experiment were considered as cured. Since in a number of control rats also no tumors occurred after 120 days the differences in cures between controls and treated animals rather than absolute numbers are reported. Differences in survival were evaluated statistically by individual comparisons between treated rats and controls using a nonparametric log-rank test (Kalbfleisch and Prentice, The statistical analysis of failure time data, Wiley, New York, 1979). Numerical evaluation was performed using a computerized system.
# [5] = Toxicity in treated tumor-bearing rats (Yoshida sarcoma experiments); format: in vivo, rat (Sprague-Dawley rats); details: at the doses tested
# Method: as §1, §2, §3, §4
# [6] = tested on: rat leukemia L 5222; test: Chemotherapeutic activity against rat Leukemia L5222; format: in vivo, rat (BD IX rats); details: rat, in vivo
# Method: Chemotherapeutic activity of methylformylamino-CNU against rat Leukemia L5222 (CNU=chloroethyl-nitroso-urea)
# The compound to be tested was solved in Chremophor EL/ethanol/physiological saline and a single dose was administered intraperitoneally into tumor inoculated BD IX rats. The experiment involved an untreated control group and a number of treated groups. The doses used and the effects of the praeterminal treatment are summarized in the following Table from which the cures (animals free of tumor after 120 days) and the increase in life span (ILS, expressed as percentage of survival of the treated test group to the untreated control group) are evident.
# Considering the fact that the true measure of the effectiveness of a drug against a neoplastic desease is the ability of the drug to kill the neoplastic cells at dosages that are not toxic to the host animal and that a quantitative evaluation of drug action is usually obtained by using the L1210 leucemia system in mice, it will be realized that in this test the tumor cells are injected into the peritoneal cavity of a mouse which thereafter is treated with the drug to be tested at a very early time after the inoculation of the tumor, i.e. at the first or second day after tumor inoculation. Thus such screening is done under very favourable test conditions for the drug. Contrary thereto the administration of the drug to be tested is performed relatively late in the case of the rat leucemia L5222, i.e. at the 8th day after tumor inoculation. It must, therefore, be taken that at that time tumor cells have colonized the cerebral region, i.e. the meninges, so that cures can only be obtained if the drug has an activity high enough to kill the leucemia cells in the cerebral region in a praeterminal state. Thus by far more severe test conditions are involved when treating rat leucemia L5222 or type Yoshida sarcoma which is a tumor model and which are hard to influence by known drugs.
# [7] = Mean animal weight / weight gain after tumor transplantation; format: in vivo, rat (Sprague-Dawley rats); details: CP 70 (exp. 1-3), BCNU 25, MeCCNU 45 (exp. 1), picolyl-3-CNU 25, its HCl 25 (exp. 2), morpholino-CNU 28, piperidino-CNU 15 (exp. 3), dimethylmorpholino-CNU 45 mg/kg (exp. 4)
# Method: as §1, §2, §3
# In all treated animals and at all doses tested the mean weight gain was lower than in the controls. Table 3 gives the mean animal weights measured 50 and 100 days after tumor transplantation in experiments 1 to 5.
# [8] = Experiment 3, CP 70, morpholino-CNU 28, piperidino-CNU 15 mg/kg
# [9] = Experiment 3, CP 70, morpholino-CNU 28, piperidino-CNU 15 mg/kg, 30 initial animals each
# [10] = Experiment 5, CP 70, picolyl-3-CNU.HCl 25, morpholino-CNU 28, piperidino-CNU 15 mg/kg
# [11] = Experiment 5, CP 70, picolyl-3-CNU.HCl 25, morpholino-CNU 28, piperidino-CNU 15 mg/kg, 15 initial animals (picolyl-3-CNU.HCl 14)
# [12] = Experiment 5, CP 70, piperidino-CNU 15 mg/kg
structure (smiles),measurement,setting,value
"NNC(=O)N(CCCl)N=O [Example 8, 1-(2-chloroethyl)-1-nitroso-3-amino-urea]",stability (in words),[1],slightly stable
same,stability on storage (in words),[1]; stored in the deep freezing compartment at -30° C.,stable for a few days
"O=NN(CCCl)C(=O)NN1CCCCC1 [Piperidino-CNU, 1-(2-chloroethyl)-1-nitroso-3-(1-piperidine)urea]",concentration reached in the distal colon (in words),[2],reached the distal colon at chemotherapeutically effective concentrations
same,water solubility (in words),[3],water-soluble
same,tumor-free animals at the end of the experiment (in words),[4]; 120 days,remarkable increase in tumor-free animals
same,increase in tumor-free animals (cures) above controls,"[4]; 120 days, CP (exp. 1-3), BCNU, MeCCNU 45, dimethylmorpholine-CNU 45, piperidino-CNU 15, picolyl-3-CNU.HCl 25 mg/kg",21%
same,"% M (median survival time, untreated control = 100)",[4]; [8],> 686%
same,D1-120 = difference (%) between tf1-120 of treated and untreated animals,[4]; [8],21%
same,D120 = difference (%) between tf120 of treated and untreated animals,[4]; [8],21%
same,tf1-120 (%) (tf120 + animals dying of toxicity),[4]; [8],50%
same,tf120 (%) (animals surviving day 120 without tumor),[4]; [8],50%
same,"tf1-120, No. (tf120 + animals dying of toxicity)",[4]; [9],15
same,"tf120, No. (animals surviving day 120 without tumor)",[4]; [9],15
same,M = median survival time,[4]; [8],> 120 days
same,effect on the survival time on retest (in words),"[4]; Experiment 5, cyclophosphamide as a standard",significant increasing effect on the survival time
same,"% M (median survival time, untreated control = 100)",[4]; [10],160%
same,D1-120 = difference (%) between tf1-120 of treated and untreated animals,[4]; [10],13%
same,D120 = difference (%) between tf120 of treated and untreated animals,[4]; [10],7%
same,"tf1-120, No. (tf120 + animals dying of toxicity)",[4]; [11],2
same,"tf120, No. (animals surviving day 120 without tumor)",[4]; [11],1
same,tf1-120 (%) (tf120 + animals dying of toxicity),[4]; [12],13%
same,tf120 (%) (animals surviving day 120 without tumor),[4]; [12],7%
same,M = median survival time,[4]; [10],16 days
same,effect on survival time / life expectancy (in words),[4],significantly increased the survival time
same,effect on survival time / life expectancy (in words),[4]; listed as piperidino-CNU,significant increase in survival time
same,chemotherapeutic activity against Yoshida sarcoma in the colon wall (in words),[4]; i.p.,active
same,toxicity (in words),[5],No toxic effects were seen
same,toxicity (in words),[5]; listed as piperidino-CNU,less toxic than cyclophosphamide
same,effectiveness in rat leukemia L 5222 (in words),[6],very good effectiveness
same,Mean animal weight on day 50,[7]; day 50 after tumor transplantation,340 g
same,Mean animal weight on day 100,[7]; day 100 after tumor transplantation,410 g
